Reference: US20240385200A1, “COMPOSITIONS AND METHODS OF DETERMINING PH AND POTASSIUM CONCENTRATION IN SAMPLES” (The University of Chicago, priority 2023, published 2024)

Tested on: TGN-resident K^+ channels
Conditions: UT HEK 293T cells; TEA 10 mM, 10 min; resting ~102 mM
Description: EE and TGN pH and [K^+] measurements were carried out using pHlicKer^EE/TGN in HEK 293T cells transfected with hMSR1 and scFv-furin respectively. For EEs, HEK 293T cells were pulsed with 250 nM pHlicKer^EE for 10 min and chased for 10 min. For TGN, HEK 293T cells were pulsed with 250 nM pHlicKer^TGN for 90 min and chased for 90 min. Cells were washed with 1×PBS three times and then imaged. For recycling endosomes, HEK 293T cells were pulsed with 250 nM pHlicKer^RE for 15 min and chased for 30 min. Cells were washed with 1×PBS three times and then imaged using a widefield microscope.
Calculating pH-corrected [K^+] in early endosomes, trans-Golgi network, and recycling endosomes. To correct for pH and obtain K^+ values, the Kd of pHlicKer in single endosomes was calculated based on the Kd calibration plot versus pH. The pH of the organelle was measured from the D/A values calibrated across pH 5.5-7.0. Donor (D) and acceptor (A) images were background subtracted by drawing a region of interest outside the cells. The D image was duplicated, and a threshold was set to create a binary mask. Background-subtracted D and A images were then multiplied with the binary mask to get processed D and A images.

Compound: CC[N+](CC)(CC)CC.[Cl-] [TEA, tetraethyl ammonium chloride]
- [K+]TGN: ~73 mM
